{
  "source": "patent US9249180B2",
  "about": "“C-3 alkyl and alkenyl modified betulinic acid derivatives” (priority 2013, dated 2016)",
  "data": [
    {"tested_on": "recombinant NL4-3 virus (Renilla luciferase in nef, Gag P373S; NLRluc) in MT-2 cells", "test": "HIV Cell Culture Assay (luciferase reporter, antiviral activity)", "type": "cell-based", "details": "Renilla, NL43, MT-2 cells infected for 4-5 days with NLRluc recombinants, serial dilutions of the inhibitor", "experimental": "HIV Cell Culture Assay—MT-2 cells and 293T cells were obtained from the NIH AIDS Research and Reference Reagent Program. MT-2 cells were propagated in RPMI 1640 media supplemented with 10% heat inactivated fetal bovine serum, […]. The 293T cells were propagated in DMEM media supplemented with 10% heat inactivated fetal bovine serum (FBS), 100 units/ml penicillin G and 100 μg/ml streptomycin. The proviral DNA clone of NL4-3 was obtained from the NIH AIDS Research and Reference Reagent Program. A recombinant NL4-3 virus, in which a section of the nef gene from NL4-3 was replaced with the Renilla luciferase gene, was used as a reference virus. In addition, residue Gag P373 was converted to P373S. Briefly, the recombinant virus was prepared by transfection of the altered proviral clone of NL4-3. Transfections were performed in 293T cells using LipofectAMINE PLUS from Invitrogen (Carlsbad, Calif.), according to manufacturer's instruction. The virus was titered in MT-2 cells using luciferase enzyme activity as a marker. Luciferase was quantitated using the Dual Luciferase kit from Promega (Madison, Wis.), with modifications to the manufacturer's protocol. The diluted Passive Lysis solution was pre-mixed with the re-suspended Luciferase Assay Reagent and the re-suspended Stop & Glo Substrate (2:1:1 ratio). Fifty (50) μL of the mixture was added to each aspirated well on assay plates and luciferase activity was measured immediately on a Wallac TriLux (Perkin-Elmer). Antiviral activities of inhibitors toward the recombinant virus were quantified by measuring luciferase activity in cells infected for 4-5 days with NLRluc recombinants in the presence serial dilutions of the inhibitor.", "units": {"EC50": "nM"}, "values": [
      {"smiles": "C=C(C)[C@@H]1CC[C@]2(NCCN3CCS(=O)(=O)CC3)CC[C@]3(C)[C@H](CC[C@@H]4[C@@]5(C)CC=C(C=C6CCC(C(=O)O)CC6)C(C)(C)[C@@H]5CC[C@]43C)[C@@H]12", "note": "(stereo partly drawn) [Example A1, 4-(((1R,3aS,5aR,5bR,7aR,11aS,11bR,13aR,13bR)-3a-((2-(1,1-dioxidothiomorpholino)ethyl)amino)-5a,5b,8,8,11a-pentamethyl-1-(prop-1-en-2-yl)-2,3,3a,4,5,5a,5b,6,7,7a,8,11,11a,11b,12,13,13a,13b-octadecahydro-1H-cyclopenta[a]chrysen-9-yl)methylene)cyclohexanecarboxylic acid]", "EC50": 3.55},
      {"smiles": "C=C(C)[C@@H]1CC[C@]2(NCCN3CCS(=O)(=O)CC3)CC[C@]3(C)[C@H](CC[C@@H]4[C@@]5(C)CC=C(/C=C/c6ccc(C(=O)O)cc6)C(C)(C)[C@@H]5CC[C@]43C)[C@@H]12", "note": "[Example B1, 4-((E)-2-((1R,3aS,5aR,5bR,7aR,11aS,11bR,13aR,13bR)-3a-((2-(1,1-dioxidothiomorpholino)ethyl)amino)-5a,5b,8,8,11a-pentamethyl-1-(prop-1-en-2-yl)-2,3,3a,4,5,5a,5b,6,7,7a,8,11,11a,11b,12,13,13a,13b-octadecahydro-1H-cyclopenta[a]chrysen-9-yl)vinyl)benzoic acid]", "EC50": 10},
      {"smiles": "C=C(C)[C@@H]1CC[C@]2(NCCN3CCS(=O)(=O)CC3)CC[C@]3(C)[C@H](CC[C@@H]4[C@@]5(C)CC=C(/C=C/C6CC6(NC(=O)OC(C)(C)C)C(=O)O)C(C)(C)[C@@H]5CC[C@]43C)[C@@H]12", "note": "(stereo partly drawn) [Example B2, 1-((tert-butoxycarbonyl)amino)-2-((E)-2-((1R,3aS,5aR,5bR,7aR,11aS,11bR,13aR,13bR)-3a-((2-(1,1-dioxidothiomorpholino)ethyl)amino)-5a,5b,8,8,11a-pentamethyl-1-(prop-1-en-2-yl)-2,3,3a,4,5,5a,5b,6,7,7a,8,11,11a,11b,12,13,13a,13b-octadecahydro-1H-cyclopenta[a]chrysen-9-yl)vinyl)cyclopropanecarboxylic acid]", "EC50": 40},
      {"smiles": "C=C(C)[C@@H]1CC[C@]2(NCCN3CCC(S(C)(=O)=O)CC3)CC[C@]3(C)[C@H](CC[C@@H]4[C@@]5(C)CC=C(C=C6CC(C(=O)O)C6)C(C)(C)[C@@H]5CC[C@]43C)[C@@H]12", "note": "(stereo partly drawn) [Example B4, 3-(((1R,3aS,5aR,5bR,7aR,11aS,11bR,13aR,13bR)-5a,5b,8,8,11a-pentamethyl-3a-((2-(4-(methylsulfonyl)piperidin-1-yl)ethyl)amino)-1-(prop-1-en-2-yl)-2,3,3a,4,5,5a,5b,6,7,7a,8,11,11a,11b,12,13,13a,13b-octadecahydro-1H-cyclopenta[a]chrysen-9-yl)methylene)cyclobutanecarboxylic acid]", "EC50": 0.6}
    ]}
  ]
}
